The structures appear in SMILES notation. ≈ marks a conversion by molar mass, not a printed value.

Holding throughout (assay type): functional
The subject of assay [1] is Staphylococcus aureus. Description: Antibacterial activity against methicillin-sensitive Staphylococcus aureus assessed as reduction in microbial growth incubated for 18 to 24 hrs by serial dilution method. The settings on record: time 18-24 hrs.
Assay [2] concerns Staphylococcus aureus. Description: Antibacterial activity against Staphylococcus aureus assessed as reduction in microbial growth incubated for 18 to 24 hrs by serial dilution method. The note with it: time 18-24 hrs.
The test system of assay [3] is Staphylococcus aureus. The assay is described as follows: Antibacterial activity against methicillin-resistant Staphylococcus aureus assessed as reduction in microbial growth incubated for 18 to 24 hrs by serial dilution method. The settings on record: time 18-24 hrs.
The test system of assay [4] is Staphylococcus epidermidis. The assay is described as follows: Antibacterial activity against Staphylococcus epidermidis assessed as inhibition of bacterial growth by microdilution method.
Assay [5] relates to Staphylococcus aureus. Description: Antibacterial activity against Staphylococcus aureus assessed as inhibition of bacterial growth by microdilution method.
In assay [6] the test system is Bacillus subtilis. The assay is described as follows: Antibacterial activity against Bacillus subtilis assessed as inhibition of bacterial growth by microdilution method.
The subject of assay [7] is Bacillus subtilis. The assay is described as follows: Antibacterial activity against Bacillus subtilis MTCC 441 assessed as reduction in microbial growth.
For assay [8], the system named is Staphylococcus epidermidis. The assay is described as follows: Antibacterial activity against Staphylococcus epidermidis assessed as reduction in microbial growth.
The next assay relates to Candida albicans. Description: Antifungal activity against Candida albicans MTCC 227 assessed as inhibition of fungal growth.
The subject of the next assay is Escherichia coli. Description: Antibacterial activity against Escherichia coli MTCC 16521 assessed as reduction in microbial growth.
For a further assay, the system named is Aspergillus niger. The assay is described as follows: Antifungal activity against Aspergillus niger MTCC 8189 assessed as inhibition of fungal growth.

As to `COc1c(N2CCN(C(=O)Cn3cc(CN4C(=O)/C(=N/O)c5cc(C)ccc54)nn3)C(C)C2)c(F)cc2c(=O)c(C(=O)O)cn(C3CC3)c12` (stereo not drawn), the MIC in the assay on Staphylococcus aureus [1], with Staphylococcus aureus [2] and in the assay on Staphylococcus aureus [3] was 0.03 µg/mL throughout.

On to `O=C1CS(=O)(=O)c2ccccc2N1Cc1cn(-c2ccc(N3CCOCC3)c(F)c2)nn1`, for which the MIC in assay [4] stood at 50 µg/mL (≈ 109 µM); with Staphylococcus aureus [5] it was 12.5 µg/mL (≈ 27.3 µM); in the assay with Bacillus subtilis [6] it was 3.12 µg/mL (≈ 6.82 µM).

Turning to `O=C1COc2cc(Br)ccc2N1Cc1cn(-c2ccc(N3CCOCC3)c(F)c2)nn1`, the minimal inhibitory concentration (MIC) (in assay [4]; in the assay on Staphylococcus aureus [5]; in the assay on Bacillus subtilis [6]) was 25 µg/mL (≈ 51.2 µM) throughout.

For `COc1ccc(NC(=O)NCc2cn(CCCCCn3cc(CNC(=O)Nc4ccc(OC)cc4)nn3)nn2)cc1`, the MIC is 6 µM in the assay with Bacillus subtilis [7]; 6 µM in assay [8]; 6 µM (≈ 3.38 µg/mL) in the assay on Candida albicans; 6 µM with Escherichia coli; 6 µM (≈ 3.38 µg/mL) in the assay on Aspergillus niger.

Turning to `COc1c(N2CCN(C(=O)Cn3cc(CN4C(=O)/C(=N/O)c5cc(F)ccc54)nn3)C(C)C2)c(F)cc2c(=O)c(C(=O)O)cn(C3CC3)c12` (stereo not drawn), the minimum inhibitory concentration (MIC) in the assay on Staphylococcus aureus [1], with Staphylococcus aureus [2] and in the assay on Staphylococcus aureus [3] was 0.03 µg/mL each time.

Turning to `CO/N=C1/C(=O)N(Cc2cn(CC(=O)N3CCN(c4c(F)cc5c(=O)c(C(=O)O)cn(C6CC6)c5c4OC)CC3C)nn2)c2ccccc21` (stereo not drawn), the MIC in the assay with Staphylococcus aureus [1], in the assay on Staphylococcus aureus [2] and in the assay with Staphylococcus aureus [3] was 0.03 µg/mL each time.

Regarding `COc1c(N2CCN(C(=O)Cn3cc(CN4C(=O)/C(=N/O)c5ccccc54)nn3)C(C)C2)c(F)cc2c(=O)c(C(=O)O)cn(C3CC3)c12` (stereo not drawn), the MIC in the assay on Staphylococcus aureus [1], in the assay on Staphylococcus aureus [2] and in the assay with Staphylococcus aureus [3] was 0.03 µg/mL throughout.

For the compound `O=C(NCc1cn(CCCCCn2cc(CNC(=O)Nc3ccc(Cl)cc3)nn2)nn1)Nc1ccc(Cl)cc1`, the minimal inhibitory concentration (MIC) was 6 µM with Bacillus subtilis [7]; 6 µM in assay [8]; 6 µM (≈ 3.43 µg/mL) in the assay on Candida albicans; 6 µM with Escherichia coli; 6 µM (≈ 3.43 µg/mL) in the assay on Aspergillus niger.

For the compound `Cc1cc(=O)oc2cc(OCc3cn(-c4ccc(N5CCOCC5)c(F)c4)nn3)ccc12`, the MIC worked out at 25 µg/mL (≈ 57.3 µM) in assay [4], 25 µg/mL (≈ 57.3 µM) in the assay with Staphylococcus aureus [5] and 50 µg/mL (≈ 115 µM) in the assay on Bacillus subtilis [6].

In the case of `Fc1cc(-n2cc(COc3cccc(Cl)c3)nn2)ccc1N1CCOCC1`, the MIC in assay [4] is 50 µg/mL (≈ 129 µM); in the assay on Staphylococcus aureus [5], 25 µg/mL (≈ 64.3 µM); with Bacillus subtilis [6], 25 µg/mL (≈ 64.3 µM).

Turning to `Fc1cc(-n2cc(CSc3nc4cc(Br)ccc4s3)nn2)ccc1N1CCOCC1`, the figures for the minimal inhibitory concentration (MIC) (in [4]; with Staphylococcus aureus [5]; with Bacillus subtilis [6]) were 50 µg/mL (≈ 98.7 µM), 50 µg/mL (≈ 98.7 µM) and 25 µg/mL (≈ 49.4 µM), respectively.

In the case of `COc1ccc(NC(=O)NCc2cn(CCCn3cc(CNC(=O)Nc4ccc(OC)cc4)nn3)nn2)cc1`, the MIC with Bacillus subtilis [7] was 6 µM; in [8], 6 µM; in the assay on Candida albicans, 6 µM (≈ 3.21 µg/mL); in the assay on Escherichia coli, 6 µM; with Aspergillus niger it was 6 µM (≈ 3.21 µg/mL).

`O=C(NCc1cn(CCCn2cc(CNC(=O)Nc3ccc(F)cc3)nn2)nn1)Nc1ccc(F)cc1`: the MIC in the assay on Bacillus subtilis [7] was determined as 6 µM; in assay [8] it was 6 µM; in the assay with Candida albicans, 6 µM (≈ 3.06 µg/mL); in the assay on Escherichia coli it was 6 µM; in the assay on Aspergillus niger, 6 µM (≈ 3.06 µg/mL).

For `Fc1cc(-n2cc(CN3c4ccccc4Sc4ccccc43)nn2)ccc1N1CCOCC1`, the MIC in assay [4] turned out to be 25 µg/mL (≈ 54.4 µM); in the assay with Staphylococcus aureus [5] it was 12.5 µg/mL (≈ 27.2 µM); with Bacillus subtilis [6], 6.25 µg/mL (≈ 13.6 µM).

On to `COc1c(N2CCN(C(=O)Cn3cc(CN4C(=O)C(=O)c5cccc(F)c54)nn3)C(C)C2)c(F)cc2c(=O)c(C(=O)O)cn(C3CC3)c12` (stereo not drawn), for which the MIC with Staphylococcus aureus [1], in the assay on Staphylococcus aureus [2] and in the assay on Staphylococcus aureus [3] was 0.03 µg/mL throughout.

For `O=c1cc(OCc2cn(-c3ccc(N4CCOCC4)c(F)c3)nn2)c2ccccc2o1`, the minimum inhibitory concentration (MIC) in assay [4] was determined as 25 µg/mL (≈ 59.2 µM); in the assay with Staphylococcus aureus [5] it was 50 µg/mL (≈ 118 µM); in the assay with Bacillus subtilis [6], 25 µg/mL (≈ 59.2 µM).

As for `O=C1CSc2ccccc2N1Cc1cn(-c2ccc(N3CCOCC3)c(F)c2)nn1`, the figures for the minimal inhibitory concentration (MIC) (in assay [4]; in the assay with Staphylococcus aureus [5]; in the assay on Bacillus subtilis [6]) were 25 µg/mL (≈ 58.8 µM), 1.56 µg/mL (≈ 3.67 µM) and 6.25 µg/mL (≈ 14.7 µM), respectively.

Regarding `COc1c(N2CCNC(C)C2)c(F)cc2c(=O)c(C(=O)O)cn(C3CC3)c12` (stereo not drawn) [GATIFLOXACIN], the MIC with Staphylococcus aureus [1], in the assay with Staphylococcus aureus [2] and in the assay with Staphylococcus aureus [3] was 0.12 µg/mL each time.

As for `CC1(C)S[C@@H]2[C@H](NC(=O)Cc3ccccc3)C(=O)N2[C@H]1C(=O)O` [PENICILLIN G], the results for the minimum inhibitory concentration (MIC) (in [4]; with Staphylococcus aureus [5]; with Bacillus subtilis [6]) were 3.12 µg/mL (≈ 9.33 µM), 1.56 µg/mL (≈ 4.67 µM) and 1.56 µg/mL (≈ 4.67 µM), respectively.

As for `CN[C@@H]1[C@H](O[C@H]2[C@H](O[C@H]3[C@H](O)[C@@H](O)[C@H](N=C(N)N)[C@@H](O)[C@@H]3N=C(N)N)O[C@@H](C)[C@]2(O)C=O)O[C@@H](CO)[C@H](O)[C@H]1O` [STREPTOMYCIN], the MIC in [4] was determined as 3.12 µg/mL (≈ 5.36 µM); in the assay on Staphylococcus aureus [5], 6.25 µg/mL (≈ 10.7 µM); with Bacillus subtilis [6], 6.25 µg/mL (≈ 10.7 µM).

Values taken from ChEMBL document CHEMBL5634077, “Recent advances in 1,2,3- and 1,2,4-triazole hybrids as antimicrobials and their SAR: A critical review” (2023).
